Assay results as given in ChEMBL document CHEMBL4831544, “Discovery of IHMT-EZH2-115 as a Potent and Selective Enhancer of Zeste Homolog 2 (EZH2) Inhibitor for the Treatment of B-Cell Lymphomas” (J Med Chem, 2021).

Legend:
[1] = molecular target: Histone-lysine N-methyltransferase EZH1 (Homo sapiens) (UniProt Q92800); assay: Inhibition of EZH1 (unknown origin) at 10 uM using SAM as substrate measured up to 960 mins by AlphaScreen microplate reader assay relative to control; conditions: time min <=960
[2] = molecular target: Histone-lysine N-methyltransferase, H3 lysine-79 specific (Homo sapiens) (UniProt Q8TEK3); assay: Inhibition of DOT1L (unknown origin) at 10 uM using SAM as substrate measured up to 960 mins by AlphaScreen microplate reader assay relative to control; conditions: time min <=960
[3] = molecular target: Histone-lysine N-methyltransferase KMT5B (Homo sapiens) (UniProt Q4FZB7); assay: Inhibition of SUV4-20H1 (unknown origin) at 10 uM using SAM as substrate measured up to 960 mins by AlphaScreen microplate reader assay relative to control; conditions: time min <=960
[4] = Antiproliferative activity against human WSUDLCL2 cells assessed as inhibition of cell growth measured after 6 days by CellTiter-Glo luminescent assay; type: functional; conditions: WSUDLCL2, 144 h, time 6 day
[5] = molecular target: Histone-lysine N-methyltransferase SETD2 (Homo sapiens) (UniProt Q9BYW2); assay: Inhibition of SETD2 (unknown origin) at 10 uM using SAM as substrate measured up to 960 mins by AlphaScreen microplate reader assay relative to control; conditions: time min <=960
[6] = test system: Histone-lysine N-methyltransferase EZH2 (Homo sapiens), Q15910 [Y641F]; assay: Inhibition of EZH2 Y641F mutant (unknown origin) at 10 uM using SAM as substrate measured up to 960 mins by AlphaScreen microplate reader assay relative to control; conditions: time min <=960
[7] = Half life in rat at 1 mg/kg, iv; type: ADME, organism-based; conditions: in vivo
[8] = AUC (0 to infinity) in rat at 10 mg/kg, po; type: ADME, organism-based; design: time infinity, route oral, dose 10 mg/kg; conditions: in vivo
[9] = AUC (0 to t) in mouse at 1 mg/kg, iv measured up to 24 hrs by LC-MS/MS analysis; type: ADME, organism-based; design: route intravenous, dose 1 mg/kg, time <=24; conditions: in vivo
[10] = Toxicity in NCG mouse xenografted with human KARPAS-422 cells harboring EZH2 Y641N mutant assessed as effect on body weight at 50 to 200 mg/kg, po BID via gavage measured after 28 days; type: organism-based; conditions: in vivo, 672 h, dose 50-200 mg/kg, time 28 day
[11] = Clearance in rat at 1 mg/kg, iv; type: ADME, organism-based; conditions: in vivo
[12] = Toxicity in NCG mouse xenografted with human Pfeiffer cells harboring EZH2 A677G mutant assessed as effect on body weight at 50 to 200 mg/kg, po BID via gavage measured after 28 days; type: organism-based; conditions: in vivo, 672 h, dose 50-200 mg/kg, time 28 day
[13] = Clearance in mouse at 10 mg/kg, po measured up to 24 hrs by LC-MS/MS analysis; type: ADME, organism-based; conditions: in vivo
KARPAS-422 = assay: Antitumor activity against human KARPAS-422 cells harboring EZH2 Y641N mutant xenografted in NCG mouse assessed as change in tumor weight at 200 mg/kg, po BID via gavage measured after 28 days (reference value: 2.14 g); type: functional; conditions: time 28 day
[14] = AUC (0 to infinity) in mouse at 1 mg/kg, iv measured up to 24 hrs by LC-MS/MS analysis; type: ADME, organism-based; design: route intravenous, dose 1 mg/kg, time <=24; conditions: in vivo
[15] = molecular target: N-lysine methyltransferase SMYD2 (Homo sapiens) (UniProt Q9NRG4); assay: Inhibition of SMYD2 (unknown origin) at 10 uM using SAM as substrate measured up to 960 mins by AlphaScreen microplate reader assay relative to control; conditions: time min <=960
[16] = molecular target: Histone-lysine N-methyltransferase EZH2 (Homo sapiens) (UniProt Q15910); assay: Inhibition of EZH2 (unknown origin) at 10 uM using SAM as substrate measured up to 960 mins by AlphaScreen microplate reader assay relative to control; conditions: time min <=960
[17] = Cmax in rat at 10 mg/kg, po; type: ADME, organism-based; design: route oral, dose 10 mg/kg; conditions: in vivo
[18] = test system: Histone-lysine N-methyltransferase EZH2 (Homo sapiens), Q15910 [A677G]; assay: Inhibition of EZH2 A677G mutant (unknown origin) at 10 uM using SAM as substrate measured up to 960 mins by AlphaScreen microplate reader assay relative to control; conditions: time min <=960
[19] = Oral bioavailability in rat at 10 mg/kg; type: ADME, organism-based; conditions: in vivo
[20] = molecular target: Histone-lysine N-methyltransferase, H3 lysine-36 specific (Homo sapiens) (UniProt Q96L73); assay: Inhibition of NSD1 (unknown origin) at 10 uM using SAM as substrate measured up to 960 mins by AlphaScreen microplate reader assay relative to control; conditions: time min <=960
[21] = molecular target: Histone-lysine N-methyltransferase SETD7 (Homo sapiens) (UniProt Q8WTS6); assay: Inhibition of SET7/9 (unknown origin) at 10 uM using SAM as substrate measured up to 960 mins by AlphaScreen microplate reader assay relative to control; conditions: time min <=960
[22] = Half life in mouse at 10 mg/kg, po measured up to 24 hrs by LC-MS/MS analysis; type: ADME, organism-based; conditions: in vivo
Pfeiffer = assay: Antiproliferative activity against human Pfeiffer cells harboring EZH2 A677G mutant assessed as inhibition of cell growth measured after 6 days by CellTiter-Glo luminescent assay; type: functional; conditions: 144 h, time 6 day
[23] = molecular target: Protein arginine N-methyltransferase 3 (Homo sapiens) (UniProt O60678); assay: Inhibition of PRMT3 (unknown origin) at 10 uM using SAM as substrate measured up to 960 mins by AlphaScreen microplate reader assay relative to control; conditions: time min <=960
[24] = molecular target: Protein arginine N-methyltransferase 6 (Homo sapiens) (UniProt Q96LA8); assay: Inhibition of PRMT6 (unknown origin) at 10 uM using SAM as substrate measured up to 960 mins by AlphaScreen microplate reader assay relative to control; conditions: time min <=960
[25] = molecular target: Histone-lysine N-methyltransferase 2A (Homo sapiens) (UniProt Q03164); assay: Inhibition of MLL1 (unknown origin) at 10 uM using SAM as substrate measured up to 960 mins by AlphaScreen microplate reader assay relative to control; conditions: time min <=960
[26] = Clearance in mouse at 1 mg/kg, iv measured up to 24 hrs by LC-MS/MS analysis; type: ADME, organism-based; conditions: in vivo
[27] = Cmax in mouse at 10 mg/kg, po measured up to 24 hrs by LC-MS/MS analysis; type: ADME, organism-based; design: route oral, dose 10 mg/kg, time <=24; conditions: in vivo
[28] = molecular target: Histone-lysine N-methyltransferase SMYD3 (Homo sapiens) (UniProt Q9H7B4); assay: Inhibition of SMYD3 (unknown origin) at 10 uM using SAM as substrate measured up to 960 mins by AlphaScreen microplate reader assay relative to control; conditions: time min <=960
[29] = test system: Histone-lysine N-methyltransferase EZH2 (Homo sapiens), Q15910 [Y641N]; assay: Inhibition of EZH2 Y641N mutant (unknown origin) at 10 uM using SAM as substrate measured up to 960 mins by AlphaScreen microplate reader assay relative to control; conditions: time min <=960
[30] = molecular target: Histone-lysine N-methyltransferase SETDB1 (Homo sapiens) (UniProt Q15047); assay: Inhibition of SETDB1 (unknown origin) at 10 uM using SAM as substrate measured up to 960 mins by AlphaScreen microplate reader assay relative to control; conditions: time min <=960
Daudi = assay: Antiproliferative activity against human Daudi cells expressing wild type EZH2 assessed as inhibition of cell growth measured after 6 days by CellTiter-Glo luminescent assay; conditions: 144 h
[31] = Clearance in rat at 10 mg/kg, po; type: ADME, organism-based; conditions: in vivo

Sequence of Histone-lysine N-methyltransferase EZH2 (Homo sapiens), Q15910 [Y641N] (Q15910 whole entry Y641N): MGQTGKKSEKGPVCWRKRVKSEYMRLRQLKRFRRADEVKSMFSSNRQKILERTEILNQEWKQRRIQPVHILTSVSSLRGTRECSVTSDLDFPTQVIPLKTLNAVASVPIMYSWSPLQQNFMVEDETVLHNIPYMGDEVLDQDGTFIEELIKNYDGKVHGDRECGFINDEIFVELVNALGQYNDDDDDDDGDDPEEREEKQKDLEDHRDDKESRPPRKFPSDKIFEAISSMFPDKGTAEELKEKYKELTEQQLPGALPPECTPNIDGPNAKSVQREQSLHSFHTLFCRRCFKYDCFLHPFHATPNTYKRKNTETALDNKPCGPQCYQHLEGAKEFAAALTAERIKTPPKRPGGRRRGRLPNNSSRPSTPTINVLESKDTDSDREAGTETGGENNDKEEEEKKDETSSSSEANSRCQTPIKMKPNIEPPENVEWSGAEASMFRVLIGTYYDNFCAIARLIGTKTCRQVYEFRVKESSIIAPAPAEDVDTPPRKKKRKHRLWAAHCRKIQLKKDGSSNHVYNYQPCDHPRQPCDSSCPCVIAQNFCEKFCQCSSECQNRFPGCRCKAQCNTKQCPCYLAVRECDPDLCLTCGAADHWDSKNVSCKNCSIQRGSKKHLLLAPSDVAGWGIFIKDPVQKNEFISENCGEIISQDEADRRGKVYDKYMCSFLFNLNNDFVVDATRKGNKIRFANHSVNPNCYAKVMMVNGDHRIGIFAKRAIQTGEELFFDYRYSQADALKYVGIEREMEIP
Sequence of Histone-lysine N-methyltransferase KMT5B (Homo sapiens) (Q4FZB7 whole entry, looked up): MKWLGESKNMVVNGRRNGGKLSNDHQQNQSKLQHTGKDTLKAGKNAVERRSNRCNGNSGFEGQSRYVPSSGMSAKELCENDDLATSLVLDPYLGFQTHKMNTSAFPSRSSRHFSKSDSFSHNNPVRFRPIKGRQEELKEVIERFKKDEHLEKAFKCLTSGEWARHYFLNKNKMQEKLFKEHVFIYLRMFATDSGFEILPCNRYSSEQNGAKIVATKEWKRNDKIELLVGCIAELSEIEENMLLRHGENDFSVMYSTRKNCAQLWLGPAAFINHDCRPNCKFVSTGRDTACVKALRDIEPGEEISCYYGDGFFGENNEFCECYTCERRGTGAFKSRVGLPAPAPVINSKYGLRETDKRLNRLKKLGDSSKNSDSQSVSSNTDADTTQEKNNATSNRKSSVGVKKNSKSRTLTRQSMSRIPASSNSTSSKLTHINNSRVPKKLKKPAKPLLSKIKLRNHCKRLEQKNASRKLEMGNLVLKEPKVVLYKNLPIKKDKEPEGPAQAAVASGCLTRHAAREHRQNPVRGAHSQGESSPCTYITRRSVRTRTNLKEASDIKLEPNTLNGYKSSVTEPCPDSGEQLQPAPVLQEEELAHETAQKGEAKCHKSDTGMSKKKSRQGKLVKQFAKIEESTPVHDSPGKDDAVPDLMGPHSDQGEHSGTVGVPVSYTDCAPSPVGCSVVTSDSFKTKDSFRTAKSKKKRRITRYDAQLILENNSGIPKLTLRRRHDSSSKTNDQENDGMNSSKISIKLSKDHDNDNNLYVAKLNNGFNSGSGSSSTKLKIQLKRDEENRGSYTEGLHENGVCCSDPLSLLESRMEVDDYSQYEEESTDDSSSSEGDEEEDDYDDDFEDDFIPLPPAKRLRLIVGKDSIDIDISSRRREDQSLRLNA
Sequence of Histone-lysine N-methyltransferase SETD2 (Homo sapiens) (Q9BYW2 whole entry): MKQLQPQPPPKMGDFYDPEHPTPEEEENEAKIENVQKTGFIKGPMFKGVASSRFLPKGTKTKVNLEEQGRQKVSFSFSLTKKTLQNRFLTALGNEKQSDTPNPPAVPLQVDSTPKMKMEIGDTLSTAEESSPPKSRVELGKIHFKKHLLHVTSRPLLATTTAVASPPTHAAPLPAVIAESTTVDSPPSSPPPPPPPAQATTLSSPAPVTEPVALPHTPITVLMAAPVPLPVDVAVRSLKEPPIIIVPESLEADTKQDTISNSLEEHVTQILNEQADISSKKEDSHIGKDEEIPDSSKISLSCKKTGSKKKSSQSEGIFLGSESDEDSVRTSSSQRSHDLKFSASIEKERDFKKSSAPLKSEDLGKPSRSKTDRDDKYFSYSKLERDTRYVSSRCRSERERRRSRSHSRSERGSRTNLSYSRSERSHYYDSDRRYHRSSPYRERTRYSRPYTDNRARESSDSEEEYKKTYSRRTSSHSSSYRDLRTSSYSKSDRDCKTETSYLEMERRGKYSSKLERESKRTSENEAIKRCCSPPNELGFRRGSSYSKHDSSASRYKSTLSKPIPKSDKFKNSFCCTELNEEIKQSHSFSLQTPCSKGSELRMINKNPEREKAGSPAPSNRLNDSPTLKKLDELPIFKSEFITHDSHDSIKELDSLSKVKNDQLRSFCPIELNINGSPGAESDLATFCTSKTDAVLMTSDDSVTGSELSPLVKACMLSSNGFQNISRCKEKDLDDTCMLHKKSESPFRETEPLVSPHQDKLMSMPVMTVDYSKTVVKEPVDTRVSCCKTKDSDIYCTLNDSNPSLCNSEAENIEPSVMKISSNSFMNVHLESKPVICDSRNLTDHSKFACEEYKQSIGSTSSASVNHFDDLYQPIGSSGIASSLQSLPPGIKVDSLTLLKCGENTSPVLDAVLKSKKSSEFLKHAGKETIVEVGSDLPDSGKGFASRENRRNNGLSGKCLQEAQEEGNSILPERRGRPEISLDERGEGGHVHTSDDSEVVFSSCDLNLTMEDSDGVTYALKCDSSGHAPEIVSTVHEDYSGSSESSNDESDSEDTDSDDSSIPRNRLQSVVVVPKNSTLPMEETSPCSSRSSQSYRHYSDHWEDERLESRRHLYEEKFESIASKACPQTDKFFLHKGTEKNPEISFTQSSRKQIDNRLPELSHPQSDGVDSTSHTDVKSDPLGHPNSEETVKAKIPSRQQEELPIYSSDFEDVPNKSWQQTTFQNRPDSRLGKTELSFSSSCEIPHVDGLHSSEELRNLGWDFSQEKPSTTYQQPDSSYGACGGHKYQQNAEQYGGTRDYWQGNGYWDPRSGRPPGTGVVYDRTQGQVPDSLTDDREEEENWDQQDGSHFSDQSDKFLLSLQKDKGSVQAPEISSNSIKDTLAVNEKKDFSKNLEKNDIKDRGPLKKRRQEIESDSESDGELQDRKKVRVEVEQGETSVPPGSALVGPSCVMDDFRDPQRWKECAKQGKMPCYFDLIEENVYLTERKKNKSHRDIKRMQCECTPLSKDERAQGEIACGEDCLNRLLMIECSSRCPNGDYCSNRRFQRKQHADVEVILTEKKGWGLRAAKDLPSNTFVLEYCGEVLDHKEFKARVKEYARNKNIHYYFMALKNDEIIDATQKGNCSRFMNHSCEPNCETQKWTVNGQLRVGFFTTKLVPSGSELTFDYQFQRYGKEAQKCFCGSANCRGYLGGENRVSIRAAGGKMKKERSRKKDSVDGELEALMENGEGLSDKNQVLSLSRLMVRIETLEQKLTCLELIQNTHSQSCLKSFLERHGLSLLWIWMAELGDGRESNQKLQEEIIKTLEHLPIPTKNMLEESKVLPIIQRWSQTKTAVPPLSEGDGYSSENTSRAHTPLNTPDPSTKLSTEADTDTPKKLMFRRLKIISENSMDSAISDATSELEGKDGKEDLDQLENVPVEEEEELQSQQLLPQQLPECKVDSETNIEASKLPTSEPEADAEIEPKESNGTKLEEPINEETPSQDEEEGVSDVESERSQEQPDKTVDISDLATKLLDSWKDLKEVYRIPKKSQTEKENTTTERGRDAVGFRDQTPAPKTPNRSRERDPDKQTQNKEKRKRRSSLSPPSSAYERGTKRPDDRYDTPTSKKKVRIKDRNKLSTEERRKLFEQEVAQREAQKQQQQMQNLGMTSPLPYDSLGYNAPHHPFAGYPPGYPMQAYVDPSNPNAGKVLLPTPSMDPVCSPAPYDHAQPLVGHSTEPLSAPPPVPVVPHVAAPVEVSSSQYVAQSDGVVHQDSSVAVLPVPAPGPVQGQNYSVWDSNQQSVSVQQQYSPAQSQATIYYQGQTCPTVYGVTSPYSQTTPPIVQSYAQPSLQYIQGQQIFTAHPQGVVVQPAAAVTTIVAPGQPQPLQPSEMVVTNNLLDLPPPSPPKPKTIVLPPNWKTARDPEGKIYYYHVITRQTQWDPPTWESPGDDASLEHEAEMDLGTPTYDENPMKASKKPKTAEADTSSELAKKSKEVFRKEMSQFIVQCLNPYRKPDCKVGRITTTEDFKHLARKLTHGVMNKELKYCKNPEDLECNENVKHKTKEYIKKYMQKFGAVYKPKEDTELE
Sequence of Protein arginine N-methyltransferase 3 (Homo sapiens) (O60678 2-531 limits assumed): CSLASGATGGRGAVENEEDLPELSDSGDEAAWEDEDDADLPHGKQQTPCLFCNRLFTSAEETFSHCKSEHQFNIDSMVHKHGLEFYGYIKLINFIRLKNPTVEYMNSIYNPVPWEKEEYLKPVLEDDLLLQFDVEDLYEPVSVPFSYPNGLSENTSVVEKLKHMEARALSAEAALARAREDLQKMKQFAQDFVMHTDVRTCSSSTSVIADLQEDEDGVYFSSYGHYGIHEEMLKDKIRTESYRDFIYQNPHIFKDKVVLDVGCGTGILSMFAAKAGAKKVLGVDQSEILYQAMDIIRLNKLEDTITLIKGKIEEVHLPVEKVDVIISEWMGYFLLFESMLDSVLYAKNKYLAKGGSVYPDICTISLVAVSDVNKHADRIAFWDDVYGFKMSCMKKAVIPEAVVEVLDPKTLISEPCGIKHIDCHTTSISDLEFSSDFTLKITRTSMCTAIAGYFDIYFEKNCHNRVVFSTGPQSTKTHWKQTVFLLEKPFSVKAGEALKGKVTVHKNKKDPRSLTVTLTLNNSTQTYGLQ
Sequence of Histone-lysine N-methyltransferase EZH2 (Homo sapiens) (Q15910 whole entry, looked up): as the sequence (Q15910 whole entry Y641N) above, with N641Y counted along it
Sequence of Histone-lysine N-methyltransferase EZH2 (Homo sapiens), Q15910 [A677G] (Q15910 whole entry A677G): as the sequence (Q15910 whole entry Y641N) above, with N641Y, A677G counted along it
Sequence of Histone-lysine N-methyltransferase EZH2 (Homo sapiens), Q15910 [Y641F] (Q15910 whole entry Y641F, looked up): as the sequence (Q15910 whole entry Y641N) above, with N641F counted along it

inhibition [1]: 92%
inhibition [2]: 0%
inhibition [3]: 0%
inhibition [5]: 0%
inhibition [6]: 99%
half-life [7]: 1.82 h
AUC(0-inf) [8]: 0.604 µg·h/mL
AUC(0-t) at 24 h [9]: 0.366 µg·h/mL
clearance [11]: 5.13 L/h/kg
CL [13]: 9.954 L/h/kg
AUC(0-inf) [14]: 0.372 µg·h/mL
inhibition [15]: 0%
inhibition [16]: 100%
Cmax [17]: 0.24 µg/mL
inhibition [18]: 87%
bioavailability [19]: 31%
inhibition [20]: 12%
inhibition [21]: 3%
t1/2 [22]: 1.3 h
inhibition [23]: 0%
inhibition [24]: 0%
inhibition [25]: 12%
CL [26]: 2.685 L/h/kg
Cmax [27]: 0.671 µg/mL
inhibition [28]: 16%
inhibition [29]: 98%
inhibition [30]: 1%
GI50 (Daudi): > 10 µM
CL/F [31]: 17.4 L/h/kg
Compound: CCN(C(=O)C1CC1)c1cc(-c2ccc(N3CCN(CC4CC4)CC3)nc2C)cc(C(=O)NCc2c(C)cc(C)[nH]c2=O)c1C
GI50 [4]: 0.2 µM
Activity [10]: Non-Toxic
Activity [12]: Non-Toxic
Activity (KARPAS-422): 0.057 g
GI50 (Pfeiffer): 0.003 µM
